The values below come from US10738057B2, “Tertiary alcohols as PI3K-γ inhibitors” (Incyte Corporation, priority 2017, dated 2020).

Experiment [1] has as its target PI3Kγ (p110γ) Recombinant Human Protein (Homo sapiens (Human), UniProt P48736). In words: PI3K-γ scintillation proximity assay. It is filed as biochemical. Particulars: 20 μM PIP2, 2 μM ATP, 13 nM PI3Kγ, 120 min, room temperature. In short, it runs like this: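 Radiometric SPA in 20 mM MOPS pH 6.7, 10 mM MgCl2, 5 mM DTT, 0.03% CHAPS, 2% DMSO. Stopped with EDTA and WGA SPA beads for scintillation counting. IC50 fitted from % solvent-control activity versus log concentration.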
For orientation: In a scintillation proximity assay essentially only radioactivity close to the scintillant gives light.

For experiment [2], the target named is PI3Kδ (p110δ/p85α) Recombinant Human Protein (Homo sapiens (Human), UniProt O00329). Kind of experiment: PI3Kδ scintillation proximity assay. The experiment is classed as biochemical. Particulars: 20 μM PIP2, 2 μM ATP, 3.4 nM PI3Kδ, 120 min, room temperature; read-out: PI3Kδ IC50. In short, it runs like this:
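Recombinant human p110δ/p85α was run at room temperature in 20 mM MOPS pH 6.7, 10 mM MgCl2, 5 mM DTT, 0.03% CHAPS, 2% DMSO. Substrates were 20 µM PIP2 and 2 µM ATP with [γ-33P]ATP. Product was captured overnight on WGA SPA beads and counted by scintillation; IC50 fitted from percent of solvent control versus log concentration.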

Experiment [3] deals with Phosphorylated Ribosomal Protein S6 (RPS6) in THP-1 cells. Kind of experiment: THP-1 RPS6 ELISA assay. It is filed as cell-based, Human. The settings on record: Homo sapiens, THP-1, THP-1 cells, serum starved, 2 h compound, 10 nM MCP-1 for 15 min, phospho-RPS6 ELISA; read-out: PI3Kγ_THP1_RPS6_ELISA IC50. A digest of the protocol:
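Serum-starved THP-1 cells (2×10^5/well, RPMI) preincubated with compound 2 h at 37° C, then stimulated with 10 nM MCP-1 for 15 min. Lysates assayed by phospho-RPS6 ELISA, absorbance 450 nm (540 nm correction); IC50 from percent inhibition versus log concentration.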
(ELISA stands for enzyme-linked immunosorbent assay.)

One may read the IC50 as the concentration that gives 50% inhibition.

Structures can show the parent of a compound that is named as a salt.

Chain of PI3Kγ (p110γ) Recombinant Human Protein (P48736 whole entry): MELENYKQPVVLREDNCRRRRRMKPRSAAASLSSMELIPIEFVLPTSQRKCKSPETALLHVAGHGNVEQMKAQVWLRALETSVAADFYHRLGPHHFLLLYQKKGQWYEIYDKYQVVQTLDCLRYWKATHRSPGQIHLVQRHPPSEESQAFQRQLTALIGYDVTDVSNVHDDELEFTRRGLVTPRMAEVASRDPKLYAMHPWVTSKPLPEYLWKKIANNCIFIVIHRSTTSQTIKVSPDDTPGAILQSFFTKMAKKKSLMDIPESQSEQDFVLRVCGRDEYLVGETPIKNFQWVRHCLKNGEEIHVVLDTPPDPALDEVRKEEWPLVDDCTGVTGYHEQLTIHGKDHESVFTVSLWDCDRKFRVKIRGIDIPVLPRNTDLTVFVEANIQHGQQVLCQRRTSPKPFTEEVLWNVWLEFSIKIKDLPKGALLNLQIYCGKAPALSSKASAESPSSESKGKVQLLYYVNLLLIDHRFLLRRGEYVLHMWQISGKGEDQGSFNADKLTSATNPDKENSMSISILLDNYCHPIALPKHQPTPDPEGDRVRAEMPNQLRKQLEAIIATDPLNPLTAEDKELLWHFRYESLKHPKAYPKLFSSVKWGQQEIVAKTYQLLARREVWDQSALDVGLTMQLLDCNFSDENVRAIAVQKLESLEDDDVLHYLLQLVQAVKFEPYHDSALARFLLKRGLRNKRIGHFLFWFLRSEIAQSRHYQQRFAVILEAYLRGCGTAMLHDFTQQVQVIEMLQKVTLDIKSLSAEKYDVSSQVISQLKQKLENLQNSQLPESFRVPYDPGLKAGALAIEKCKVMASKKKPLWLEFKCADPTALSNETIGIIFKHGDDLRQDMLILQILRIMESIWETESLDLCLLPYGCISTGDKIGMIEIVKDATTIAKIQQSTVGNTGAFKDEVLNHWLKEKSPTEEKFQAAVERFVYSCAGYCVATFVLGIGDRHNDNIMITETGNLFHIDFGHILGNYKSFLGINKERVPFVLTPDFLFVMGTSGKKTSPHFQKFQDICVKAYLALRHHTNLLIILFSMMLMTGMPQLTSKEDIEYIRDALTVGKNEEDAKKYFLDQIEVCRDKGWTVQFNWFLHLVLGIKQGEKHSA
Chain of PI3Kδ (p110δ/p85α) Recombinant Human Protein (O00329 whole entry): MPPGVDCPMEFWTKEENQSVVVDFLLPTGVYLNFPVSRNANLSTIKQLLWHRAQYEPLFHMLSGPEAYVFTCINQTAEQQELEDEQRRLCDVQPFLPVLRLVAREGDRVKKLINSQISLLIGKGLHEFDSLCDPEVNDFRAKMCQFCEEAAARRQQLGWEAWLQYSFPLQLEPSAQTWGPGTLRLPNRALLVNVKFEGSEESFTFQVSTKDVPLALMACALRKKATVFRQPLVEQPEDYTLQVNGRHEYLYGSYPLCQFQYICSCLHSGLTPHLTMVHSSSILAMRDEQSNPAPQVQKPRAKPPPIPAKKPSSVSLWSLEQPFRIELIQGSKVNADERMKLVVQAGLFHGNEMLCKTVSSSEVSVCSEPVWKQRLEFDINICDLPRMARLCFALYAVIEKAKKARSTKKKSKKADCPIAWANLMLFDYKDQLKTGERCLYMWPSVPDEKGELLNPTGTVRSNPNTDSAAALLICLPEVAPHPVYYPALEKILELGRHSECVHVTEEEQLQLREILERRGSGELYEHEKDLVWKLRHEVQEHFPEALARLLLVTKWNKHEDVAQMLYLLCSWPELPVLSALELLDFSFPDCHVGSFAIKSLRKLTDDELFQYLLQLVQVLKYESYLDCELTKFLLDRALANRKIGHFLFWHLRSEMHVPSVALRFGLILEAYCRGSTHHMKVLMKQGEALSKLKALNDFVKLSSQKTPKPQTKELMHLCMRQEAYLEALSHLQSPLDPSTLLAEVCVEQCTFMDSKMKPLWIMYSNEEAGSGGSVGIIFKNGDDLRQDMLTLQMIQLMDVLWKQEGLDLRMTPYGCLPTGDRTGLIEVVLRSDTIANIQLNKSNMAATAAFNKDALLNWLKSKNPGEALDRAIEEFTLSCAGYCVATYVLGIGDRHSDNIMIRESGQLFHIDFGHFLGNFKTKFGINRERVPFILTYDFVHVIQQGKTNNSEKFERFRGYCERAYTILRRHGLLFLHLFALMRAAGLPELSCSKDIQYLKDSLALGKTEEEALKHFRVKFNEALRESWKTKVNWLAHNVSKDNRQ
Chain of PI3Kδ (p110δ/p85α) Recombinant Human Protein (P27986 whole entry partner): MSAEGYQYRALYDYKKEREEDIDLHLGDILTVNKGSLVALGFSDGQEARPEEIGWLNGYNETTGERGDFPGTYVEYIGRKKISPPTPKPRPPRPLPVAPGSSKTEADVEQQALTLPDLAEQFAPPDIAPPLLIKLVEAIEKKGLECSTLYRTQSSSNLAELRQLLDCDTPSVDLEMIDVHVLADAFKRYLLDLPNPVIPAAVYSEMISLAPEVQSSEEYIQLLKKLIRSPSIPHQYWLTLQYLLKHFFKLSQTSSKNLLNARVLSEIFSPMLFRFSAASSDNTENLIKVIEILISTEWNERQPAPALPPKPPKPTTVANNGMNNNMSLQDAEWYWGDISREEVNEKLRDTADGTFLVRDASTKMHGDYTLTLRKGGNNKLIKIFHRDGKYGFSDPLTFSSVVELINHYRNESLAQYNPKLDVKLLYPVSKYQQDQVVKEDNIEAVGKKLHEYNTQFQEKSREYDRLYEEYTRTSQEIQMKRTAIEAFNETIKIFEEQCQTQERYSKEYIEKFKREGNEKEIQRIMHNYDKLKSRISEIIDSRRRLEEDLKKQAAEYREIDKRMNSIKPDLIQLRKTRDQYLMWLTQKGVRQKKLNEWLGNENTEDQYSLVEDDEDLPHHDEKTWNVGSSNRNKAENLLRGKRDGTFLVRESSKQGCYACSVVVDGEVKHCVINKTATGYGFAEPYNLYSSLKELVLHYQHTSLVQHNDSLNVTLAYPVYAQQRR

Take `Cc1ccc(C(C)(O)C(F)F)cc1-c1cnc2c(N)nc(-n3cncn3)cn12` (stereo not drawn) [Example 49, 2-(3-(8-Amino-6-(1H-1,2,4-triazol-1-yl)imidazo[1,2-a]pyrazin-3-yl)-4-methylphenyl)-1,1-difluoropropan-2-ol]: the figures for the IC50 in experiment [1], in experiment [2] and in experiment [3] were under 100 nM, 100 to 500 nM and 100 to 500 nM, respectively.

`CCC(O)(c1ccc(C)c(-c2cnc3c(N)nc(-c4ccnn4C)cn23)c1)C(F)F` (stereo not drawn) [Example 50, 2-(3-(8-Amino-6-(1-methyl-1H-pyrazol-5-yl)imidazo[1,2-a]pyrazin-3-yl)-4-methylphenyl)-1,1-difluorobutan-2-ol trifluoroacetate]: the IC50 in experiment [1] was under 100 nM; in experiment [2], 100 to 500 nM; in experiment [3], 100 to 500 nM.

As to `Cc1ccc(C2(O)CCCC2F)cc1-c1cnc2c(N)nc(C(F)(F)F)cn12` (stereo not drawn) [Example 61, 1-(3-(8-Amino-6-(trifluoromethyl)imidazo[1,2-a]pyrazin-3-yl)-4-methylphenyl)-2-fluorocyclopentan-1-ol trifluoroacetate salt], the results for the IC50 in experiment [1], in experiment [2] and in experiment [3] were under 100 nM, 100 to 500 nM and 100 to 500 nM, respectively.

As to `CNC(=O)C1CC1c1cn2c(-c3cc(C(C)(O)C(F)F)ccc3C)cnc2c(N)n1` (stereo not drawn) [Example 76, 2-(8-Amino-3-(5-(1,1-difluoro-2-hydroxypropan-2-yl)-2-methylphenyl)imidazo[1,2-a]pyrazin-6-yl)-N-methylcyclopropane-1-carboxamide], the IC50 was under 100 nM in experiment [1], 100 to 500 nM in experiment [2] and 100 to 500 nM in experiment [3].

With `Cc1ccc(C(C)(O)C(F)F)cc1-c1cnc2c(N)nc(C3CC3C(=O)NC(C)(C)CO)cn12` (stereo not drawn) [Example 78, 2-(8-Amino-3-(5-(1,1-difluoro-2-hydroxypropan-2-yl)-2-methylphenyl)imidazo[1,2-a]pyrazin-6-yl)-N-(1-hydroxy-2-methylpropan-2-yl)cyclopropane-1-carboxamide], the values for the IC50 in experiment [1], in experiment [2] and in experiment [3] were under 100 nM, 100 to 500 nM and 100 to 500 nM, respectively.

For the compound `[2H]C([2H])([2H])c1ccc(C(C)(O)C(F)(F)F)cc1-c1cnc2c(N)nc(C(=O)NCC(C)(C)O)cn12` (stereo not drawn) [Example 81, 8-Amino-N-(2-hydroxy-2-methylpropyl)-3-(2-(methyl-d3)-5-(1,1,1-trifluoro-2-hydroxypropan-2-yl)phenyl)imidazo[1,2-a]pyrazine-6-carboxamide], the half-maximal inhibitory concentration (IC50) in experiment [1] is under 100 nM; in experiment [2], under 100 nM; in experiment [3], 100 to 500 nM.

In the case of `Cc1ccc(C(O)(C(N)=O)C(F)(F)F)cc1-c1cnc2c(N)nc(C(F)(F)F)cn12` (stereo not drawn) [Example 82, 2-(3-(8-Amino-6-(trifluoromethyl)imidazo[1,2-a]pyrazin-3-yl)-4-methylphenyl)-3,3,3-trifluoro-2-hydroxypropanamide], the 50% inhibitory concentration (IC50) in experiment [1], in experiment [2] and in experiment [3] was under 100 nM in each case.

For `Cc1ccc(C(O)(C(N)=O)C(F)(F)F)cc1-c1cnc2c(N)nc(C(=O)NC3(C4CC4)CCOC3)cn12` (stereo not drawn) [Example 83, 8-Amino-3-(5-(3-amino-1,1,1-trifluoro-2-hydroxy-3-oxopropan-2-yl)-2-methylphenyl)-N-(3-cyclopropyltetrahydrofuran-3-yl)imidazo[1,2-a]pyrazine-6-carboxamide trifluoroacetate salt], the half-maximal inhibitory concentration (IC50) was under 100 nM in experiment [1], 100 to 500 nM in experiment [2] and under 100 nM in experiment [3].

Turning to `Cc1ccc(C(O)(C(N)=O)C(F)(F)F)cc1-c1cnc2c(N)nc(C(=O)NC3(C)CCOC3C)cn12` (stereo not drawn) [Example 84, 8-Amino-3-(5-(3-amino-1,1,1-trifluoro-2-hydroxy-3-oxopropan-2-yl)-2-methylphenyl)-N-(2,3-dimethyltetrahydrofuran-3-yl)imidazo[1,2-a]pyrazine-6-carboxamide, trifluoroacetate], the IC50 in experiment [1] was under 100 nM; in experiment [2], 100 to 500 nM; in experiment [3], 100 to 500 nM.

For `Cc1ccc(C(O)(C(N)=O)C(F)(F)F)cc1-c1cnc2c(N)nc(C(=O)NC3(C(F)(F)F)CCOCC3)cn12` (stereo not drawn) [Example 85, 8-Amino-3-(5-(3-amino-1,1,1-trifluoro-2-hydroxy-3-oxopropan-2-yl)-2-methylphenyl)-N-(4-(trifluoromethyl)tetrahydro-2H-pyran-4-yl)imidazo[1,2-a]pyrazine-6-carboxamide, trifluoroacetate], the half-inhibitory concentration (IC50) was under 100 nM in experiment [1], 500 to 2000 nM in experiment [2] and 100 to 500 nM in experiment [3].

On to `[2H]C([2H])([2H])c1ccc(C(C)(O)C(F)(F)F)cc1-c1cnc2c(N)nc(-c3cnn(C(CC#N)C4CCC4)c3)cn12` (stereo not drawn) [Example 86, 3-(4-(8-Amino-3-(2-(methyl-d3)-5-(1,1,1-trifluoro-2-hydroxypropan-2-yl)phenyl)imidazo[1,2-a]pyrazin-6-yl)-1H-pyrazol-1-yl)-3-cyclobutylpropanenitrile, trifluoroacetate], for which the IC50 in experiment [1] was under 100 nM; in experiment [2] it was 100 to 500 nM; in experiment [3], 100 to 500 nM.

For `[2H]C([2H])([2H])c1ccc(C(C)(O)C(F)(F)F)cc1-c1cnc2c(N)nc(-c3cnn4c3CCC4)cn12` (stereo not drawn) [Example 87, 2-(3-(8-Amino-6-(5,6-dihydro-4H-pyrrolo[1,2-b]pyrazol-3-yl)imidazo[1,2-a]pyrazin-3-yl)-4-(methyl-d3)phenyl)-1,1,1-trifluoropropan-2-ol, trifluoroacetate], the concentration for half-maximal inhibition (IC50) in experiment [1] is under 100 nM; in experiment [2] it was under 100 nM; in experiment [3], 100 to 500 nM.

As to `[2H]C([2H])([2H])c1ccc(C(C)(O)C(F)(F)F)cc1-c1cnc2c(N)nc(-c3cnn(C4(CC#N)CC(C(=O)OC)C4)c3)cn12` (stereo not drawn) [Example 88, Methyl 3-(4-(8-amino-3-(2-(methyl-d3)-5-(1,1,1-trifluoro-2-hydroxypropan-2-yl)phenyl)imidazo[1,2-a]pyrazin-6-yl)-1H-pyrazol-1-yl)-3-(cyanomethyl)cyclobutane-1-carboxylate, trifluoroacetate], the 50% inhibitory concentration (IC50) in experiment [1] was under 100 nM; in experiment [2] it was 100 to 500 nM; in experiment [3] it was 100 to 500 nM.

In the case of `Cc1ccc(C(O)(C(N)=O)C(F)F)cc1-c1cnc2c(N)nc(C(F)(F)F)cn12` (stereo not drawn) [Example 89, 2-(3-(8-Amino-6-(trifluoromethyl)imidazo[1,2-a]pyrazin-3-yl)-4-methylphenyl)-3,3-difluoro-2-hydroxypropanamide], the IC50 in experiment [1], in experiment [2] and in experiment [3] was under 100 nM in each case.

With `Cc1ccc(C(C)(O)C(F)F)cc1-c1cnc2c(N)nc(-c3cnn(C4(CC#N)CN(C(=O)C5CCC5)C4)c3)cn12` (stereo not drawn) [Example 100, 2-(3-(4-(8-amino-3-(5-(1,1-difluoro-2-hydroxypropan-2-yl)-2-methylphenyl)imidazo[1,2-a]pyrazin-6-yl)-1H-pyrazol-1-yl)-1-(cyclobutanecarbonyl)azetidin-3-yl)acetonitrile], the values for the concentration for half-maximal inhibition (IC50) in experiment [1], in experiment [2] and in experiment [3] were under 100 nM, 100 to 500 nM and 100 to 500 nM, respectively.

As to `Cc1ccc(C(C)(O)C(F)F)cc1-c1cnc2c(N)nc(-c3cncc(S(C)(=O)=O)c3)cn12` (stereo not drawn) [Example 106, 2-(3-(8-Amino-6-(5-(methylsulfonyl)pyridin-3-yl)imidazo[1,2-a]pyrazin-3-yl)-4-methylphenyl)-1,1-difluoropropan-2-ol], the values for the 50% inhibitory concentration (IC50) in experiment [1], in experiment [2] and in experiment [3] were under 100 nM, 100 to 500 nM and 100 to 500 nM, respectively.

Turning to `Cc1ccc(C(C)(O)C(F)F)cc1-c1cnc2c(N)nc(-c3ccc(B(O)O)cc3)cn12` (stereo not drawn) [Example 108, (4-(8-amino-3-(5-(1,1-difluoro-2-hydroxypropan-2-yl)-2-methylphenyl)imidazo[1,2-a]pyrazin-6-yl)phenyl)boronic acid trifluoroacetate salt], the IC50 in experiment [1], in experiment [2] and in experiment [3] was under 100 nM in each case.

In the case of `Cc1nc(N)c2ncc(-c3cc(C(O)(C(F)F)C(F)F)ccc3C)n2n1` [Example 112, 2-(3-(4-Amino-2-methylimidazo[2,1-f][1,2,4]triazin-7-yl)-4-methylphenyl)-1,1,3,3-tetrafluoropropan-2-ol trifluoroacetate salt], the 50% inhibitory concentration (IC50) is under 100 nM in experiment [1], 500 to 2000 nM in experiment [2] and 500 to 1000 nM in experiment [3].

As for `CNC(=O)C(O)(c1ccc(C)c(-c2cnc3c(N)nc(C(F)(F)F)cn23)c1)C(F)(F)F` (stereo not drawn) [Example 118, 2-(3-(8-Amino-6-(trifluoromethyl)imidazo[1,2-a]pyrazin-3-yl)-4-methylphenyl)-3,3,3-trifluoro-2-hydroxy-N-methylpropanamide], the concentration for half-maximal inhibition (IC50) in experiment [1], in experiment [2] and in experiment [3] was under 100 nM in each case.

As for `Cc1ccc(C(O)(C(=O)O)C(F)(F)F)cc1-c1cnc2c(N)nc(C(F)(F)F)cn12` (stereo not drawn) [Example 120, 2-(3-(8-amino-6-(trifluoromethyl)imidazo[1,2-a]pyrazin-3-yl)-4-methylphenyl)-3,3,3-trifluoro-2-hydroxypropanoic acid], the half-inhibitory concentration (IC50) in experiment [1] is under 100 nM; in experiment [2], 100 to 500 nM; in experiment [3], over 1000 nM.
